The values that follow come from the Deep4Chem optical property database.

The nature of the series: solvent given as SMILES.

With `COc1cc2cc(/C=C/c3ccc(/C=C/c4ccc(/C=C(\C#N)C(=O)O)cc4)cc3)c(=O)oc2cc1OC`, the emission maximum (in CC#N) is 489 nm.

As for `COc1cc(OC)c2c(c1)C(=O)c1ccccc1-2`, the emission maximum came out at 537 nm (in C1CCCCC1) and 592 nm (in CC#N).

Compound `CN(C)c1ccc(-c2cc(-c3ccc(C#N)cc3)nc(-c3ccccc3)n2)cc1` yielded an emission maximum (in ClC(Cl)Cl) of 495 nm.

Compound `CC(=O)OCCOCCN1C(=O)c2cc(NCCOCCO)c3c4c(cc(NCCOCCO)c(c24)C1=O)C(=O)N(CCOCCOC(C)=O)C3=O` gave an emission maximum (in CO) of 641 nm, an emission maximum (in ClC(Cl)Cl) of 640 nm and an emission maximum (in O) of 657 nm.

Consider `c1ccc(-c2nnc(-c3cc(-c4nnc(-c5ccccc5)o4)c(-n4c5ccccc5c5ccccc54)cc3-n3c4ccccc4c4ccccc43)o2)cc1`, for which the emission maximum reads like this: (in Cc1ccccc1) 439 nm; (in O=P(c1ccccc1)(c1ccccc1)c1ccccc1Oc1ccccc1P(=O)(c1ccccc1)c1ccccc1) 459 nm.

Take `N#C/C(=C\c1cc(/C=C(\C#N)c2ccc(C(F)(F)F)cc2)c(-c2ccc(N(c3ccccc3)c3ccccc3)cc2)cc1-c1ccc(N(c2ccccc2)c2ccccc2)cc1)c1ccc(C(F)(F)F)cc1`: the emission maximum worked out at 478 nm (in C1CCCCC1); 587 nm (in C1CCOC1); 473 nm (in CCCCCC); 581 nm (in CCOC(C)=O); 515 nm (in Cc1ccccc1); 553 nm (in ClC(Cl)Cl). The same compound registered an emission maximum (in ClCCl) of 594 nm.

Turning to `CCCCCCCCCCCCN(CCCCCCCCCCCC)c1ccc2c(c1)oc(=O)c1c(=O)oc3ccccc3c12`, the emission maximum was 562 nm (in CS(C)=O) and 528 nm (in ClCCl).

With `Cn1nc(-c2ccccc2)c2nc3cc(Cl)ccc3nc21`, the emission maximum runs as follows: (in C1CCCCC1) 487 nm; (in C1CCOC1) 519 nm; (in CC#N) 540 nm.

With `C(=C\c1cnccn1)/c1ccc(N(c2ccccc2)c2ccc(/C=C/c3cnccn3)cc2)cc1`, the emission maximum (in ClCCl) worked out at 569 nm.

With `COc1ccc(N2C(=O)c3ccccc3NC2C(C)(C)C)cc1` (centres undefined), the emission maximum runs as follows: (in CC#N) 413 nm; (in CO) 444 nm; (in ClC(Cl)Cl) 410 nm; (in c1ccccc1) 400 nm.

In the case of `COc1ccc2c(c1)[nH]c1c3[nH]c4cc(OC)ccc4c3c3nsnc3c21`, the emission maximum reads like this: (in CN(C)C=O) 544 nm; (in Cc1ccccc1) 501 nm; (in ClCCl) 540 nm.

In turn, `CSc1cc(-c2cc3cc4c5c(c3oc2=O)CCCN5CCC4)oc(=O)c1C#N` came in with an emission maximum (in C1CCOC1) of 580 nm; an emission maximum (in CC#N) of 603 nm; an emission maximum (in CC(C)=O) of 596 nm; an emission maximum (in CCOC(C)=O) of 575 nm; an emission maximum (in CN(C)C=O) of 612 nm; an emission maximum (in CO) of 601 nm. Besides, the emission maximum is, setting by setting: (in CS(C)=O) 616 nm; (in Cc1ccccc1) 553 nm; (in ClC(Cl)Cl) 570 nm; (in ClCCl) 586 nm.

Where the note is “in Cc1ccccc1”, `Cc1ccc2c(c1)c1cc(C)ccc1n2-c1c(-n2c3ccccc3c3ccccc32)c(C#N)c(-n2c3ccccc3c3ccccc32)c(-n2c3ccc(C)cc3c3cc(C)ccc32)c1-n1c2ccccc2c2ccccc21` showed an emission maximum of 480 nm.

As for `c1ccc2c(c1)Cc1ccccc1N2c1c2ccccc2c(N2c3ccccc3Cc3ccccc32)c2ccccc12`, where the note is “in Cc1ccccc1”, the emission maximum is 553 nm.

`Cc1nc(-c2cc(N)ccc2O)n2c1CCCC2` had an emission maximum (in ClCCl) of 543 nm.

Turning to `CN1C(=CC2=C([O-])C(=Cc3sc4ccccc4[n+]3C)C2=C(C#N)C#N)C(C)(C)c2ccccc21`, the emission maximum (in ClC(Cl)Cl) worked out at 708 nm.

In the case of `COc1ccc(C2=[N+]3C(=Nc4c(-c5ccc6ccccc6c5)c(Br)c(-c5ccc(OC)cc5)n4[B-]3(F)F)C(c3ccc4ccccc4c3)=C2Br)cc1`, where the note is “in ClCCl”, the emission maximum worked out at 734 nm.

Compound `COc1ccc(-c2nc(-c3ccc(C)cc3)c3ccccn23)cc1` came in with an emission maximum (in ClC(Cl)Cl) of 521 nm.

With `C(#Cc1c2ccccc2c(-c2ccccc2)c2cc3ccccc3cc12)c1ccccc1`, the emission maximum (in ClCCl) is 541 nm.

`COc1ccc2c(c1)C(=O)c1ccccc1-2`: the emission maximum reads like this: (in C1CCCCC1) 518 nm; (in CC#N) 568 nm.

For the compound `Cc1cc(C(F)(F)F)nc2c1ccc1nc(-c3ccc(Cl)cc3)cn12`, the emission maximum came out at 463 nm (in CC#N); 439 nm (in CCCCCC); 455 nm (in CCCCOC(C)=O); 457 nm (in CCOC(C)=O); 459 nm (in CO); 455 nm (in Cc1ccccc1). Also, the emission maximum (in ClC(Cl)Cl) stood at 452 nm, the emission maximum (in ClCCl) was 455 nm and the emission maximum (in c1ccccc1) was found to be 455 nm.

On to `NCCCCCCCCCCCCN1C(=O)c2ccc3c4ccc5c6c(ccc(c7ccc(c2c37)C1=O)c64)C(=O)N(CCCCCCCCCCCCN)C5=O`, for which the emission maximum (in CN(C)C=O) came out at 537 nm.

Turning to `CCCCCCCCCCN1C(=O)c2cc(NCCCOCCO)c3c4c(cc(NCCCOCCO)c(c24)C1=O)C(=O)N(CCCCCCCCCC)C3=O`, the emission maximum is, setting by setting: (in CO) 642 nm; (in ClC(Cl)Cl) 640 nm.

For the compound `O=C(c1ccc(N(c2ccccc2)c2ccccc2)cc1)[C@H]1[C@H](c2ccc(F)cc2)C[C@](O)(c2ccccn2)C[C@]1(O)c1ccccn1`, the emission maximum came to 502 nm (in C1CCOC1); 523 nm (in CC#N); 515 nm (in CCO); 502 nm (in CCOC(C)=O); 524 nm (in CN(C)C=O); 518 nm (in ClCCl). The compound also registered an emission maximum (in c1ccccc1) of 485 nm.

For the setting “in ClC(Cl)Cl”, `COc1ccc2cc(-c3ccc(-c4cc5ccc(OC)cc5oc4=O)cc3)c(=O)oc2c1` came in with an emission maximum of 434 nm.

In turn, `CCN(CC)c1ccc(C2=C3C(C)=CC(/C=C/c4ccc(OCC(=O)OC)cc4)=[N+]3[B-](F)(F)n3c(C)cc(C)c32)cc1` gave an emission maximum (in CO) of 581 nm.

The compound `c1ccc(-c2nc(-c3ccccc3)nc(-c3cc(-n4c5ccccc5c5ccccc54)cc(-n4c5ccccc5c5ccccc54)c3)n2)cc1` displayed an emission maximum (in C1CCCCC1) of 409.39 nm, an emission maximum (in C1CCOC1) of 546.94 nm and an emission maximum (in Cc1ccccc1) of 475.1 nm.

`CN(C)c1ccc(-c2nc3ccccc3n2-c2ccccc2)cc1` showed an emission maximum (in CC#N) of 397 nm.

`CCC1=C(C)C2=C(/C=C/c3ccc(OC)cc3)c3c(C)c(CC)c(C)n3[B-](F)(F)[N+]2=C1C`: the emission maximum (in ClCCl) is listed as 542 nm.

As for `F[B-]1(F)n2cccc2C(c2c3ccccc3cc3ccccc23)=C2C=CC=[N+]21`, the emission maximum by setting is: (in CC#N) 519 nm; (in CCCCCC) 521 nm; (in CCO) 520 nm; (in CN(C)C=O) 524 nm; (in Cc1ccccc1) 525 nm; (in ClCCl) 520 nm.

`COc1ccc(-c2cn3ccc[n+]3[n-]2)cc1` registered an emission maximum (in ClCCl) of 413 nm.

Take `CC(C)(C)OC(=O)COc1ccc2c(c1)oc(=O)c1c(=O)oc3ccccc3c12`: the emission maximum is reported as 449 nm (in CS(C)=O) and 440 nm (in ClCCl).

`COc1ccc(-c2ccc(-c3ccc(OC)cc3)cc2)cc1` returned an emission maximum (in C1CCCCC1) of 360 nm.
